Earlier results as cited in US20160193372A1, “METHODS OF IDENTIFYING SURROGATE IMAGING AGENTS FOR ALPHA EMITTER RADIOPHARMACEUTICALS AND THEIR USE IN TREATMENT OF DISEASE” (THE JOHNS HOPKINS UNIVERSITY, priority 2012, published 2016).

Tested on: mineralizing or proliferating bone matrix
Conditions: very high administered activities

^153Sm-EDTMP
pain effect in OS: pain palliation
therapeutic efficacy in OS: minimal therapeutic efficacy
